The values below come from patent publication US20170105967A1, “COMPOSITIONS AND METHODS OF TREATMENT OF INFLAMMATORY SKIN CONDITIONS USING ALLANTOIN” (Scioderm, Inc., priority 2010, published 2017).

Data set [1] has as its system calluses and other forms of hyperkeratization. As to conditions: lower concentrations; cited from earlier work.
A short description of data set [2]: percutaneous absorption through dermis only human cadaver skin. The class given is in vitro ADME. As to conditions: isolated dermis. How it is done: The formulations A.S. 1-139E, A.S. 1-81B, A.S. 1-135C, A.S. 1-135G, and A.S. 1-81 G were tested on a minimum of triplicate sections from three different cadaver skin donors and three different porcine skin donors for the percutaneous absorption of allantoin over a 48-hour dose period. The intent of this study was to mimic the absorption of allantoin directly into the capillary bed, while the dermis only study attempted to mimic the loss of skin barrier function due to broken skin or blisters. In addition, each formulation was tested in at least triplicate membrane chambers. At preselected times after dosing, the dermal receptor solution was removed in its entirety, replaced with fresh receptor solution, and an aliquot saved for subsequent analysis. The samples were analyzed for the allantoin using high performance liquid chromatography with UV and MS detection (HPLC-UV-MS). The bottom table of FIG. 3 lists a remanufacture of the 9% allantoin cream (A.S. 1-153H) to achieve a better viscosity of the final product.

A further data set relates to psoriatic scales. The note with it: in vitro incubation with allantoin solution; cited from earlier work.
The conditions of data set [3]: sodium lauryl sulfate and beeswax emulsion, pH 6.8 to 7.5; with time and accelerated tests at 40° C.; cited from earlier work.
The conditions of data set [4]: in vitro; reactive sulphydryl groups released; cited from earlier work.

For `NC(=O)NC1NC(=O)NC1=O` (centres unmarked) [allantoin], the “concentration loosening the desmosomes (protein bridges)” value in data set [1] is given as less than 1%. The “penetration of allantoin when the skin's barrier has been damaged or removed” value in data set [2] is listed as “increases significantly”. In addition, in the data set on psoriatic scales, the “concentration showing keratolytic activity on psoriatic scales” value was not below 0.2%. In addition, in data set [3], the stability of allantoin result was “degrades significantly”. Moreover, the protein dispersing activity result in data set [4] is “confirm the protein dispersing activity”.
